# Columns and labels:
# [1] = molecular target: GDP-bound KRAS wild-type protein (Homo sapiens, UniProt P01116); experiment: Binding to KRAS by surface plasmon resonance (SPR), Single Cycle Kinetics; details: SPR Single Cycle Kinetics, GDP-bound KRAS wild-type protein, 1:1 binding model; read-out: KRAS KD
# [2] = molecular target: GDP-bound NRAS wild-type protein (Homo sapiens, UniProt P01111); experiment: Binding to NRAS by surface plasmon resonance (SPR), Single Cycle Kinetics; details: SPR KD ratio NRAS/KRAS, class symbols
# [3] = molecular target: GDP-bound HRAS wild-type protein (Homo sapiens, UniProt P01112); experiment: Binding to HRAS by surface plasmon resonance (SPR), Single Cycle Kinetics; details: SPR KD ratio HRAS/KRAS, class symbols
# Sequence of GDP-bound HRAS wild-type protein (P01112 whole entry): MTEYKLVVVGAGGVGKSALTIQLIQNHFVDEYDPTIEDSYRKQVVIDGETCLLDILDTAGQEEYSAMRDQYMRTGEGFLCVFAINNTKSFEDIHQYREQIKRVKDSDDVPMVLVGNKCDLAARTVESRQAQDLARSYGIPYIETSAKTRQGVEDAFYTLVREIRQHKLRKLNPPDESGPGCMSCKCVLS
# Sequence of GDP-bound NRAS wild-type protein (P01111 whole entry): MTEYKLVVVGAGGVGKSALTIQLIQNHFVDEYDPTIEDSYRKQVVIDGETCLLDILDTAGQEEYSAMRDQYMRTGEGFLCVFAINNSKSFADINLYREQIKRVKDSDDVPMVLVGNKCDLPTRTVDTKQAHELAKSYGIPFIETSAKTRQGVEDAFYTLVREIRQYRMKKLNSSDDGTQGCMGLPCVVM
# Sequence of GDP-bound KRAS wild-type protein (P01116 whole entry): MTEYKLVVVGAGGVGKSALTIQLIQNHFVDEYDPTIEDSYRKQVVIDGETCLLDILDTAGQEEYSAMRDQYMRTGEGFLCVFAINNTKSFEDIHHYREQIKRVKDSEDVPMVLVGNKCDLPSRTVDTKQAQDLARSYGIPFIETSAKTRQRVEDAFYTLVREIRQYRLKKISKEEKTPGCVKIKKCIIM
Compound,Kd [1] [nM],NRAS/KRAS (ratio of KD value with respect to GDP-bound NRAS wild-type protein to KD value with respect to KRAS) [2],HRAS/KRAS (ratio of KD value with respect to GDP-bound HRAS wild-type protein to KD value with respect to KRAS) [3]
CCC[C@H]1C(=O)N[C@@H]([C@@H](C)CC)C(=O)N(C)CC(=O)N(C)[C@H]2C/C=C\CCN(C2=O)[C@@H](Cc2ccc(C(F)(F)F)cc2)C(=O)N(C)CC(=O)N[C@@H](CCc2cc(F)c(C(F)F)c(F)c2)C(=O)N2C[C@H](OCC)C[C@H]2C(=O)NC2(CC(C)(C)C2)C(=O)N(C)[C@@H](C(CC)CC)C(=O)N(C)[C@H](C(=O)N(C)C)CC(=O)N1C [PP2781],1.5,AA (a compound having 20 or more is denoted as AA),A (a compound having 10 or more and less than 20 is denoted as A)
CCC[C@H]1C(=O)N[C@@H]([C@@H](C)CC)C(=O)N(C)CC(=O)N(C)[C@H]2C/C=C\CCN(C2=O)[C@@H](Cc2ccc(C)cc2)C(=O)N(C)CC(=O)N[C@@H](CCc2cc(F)c(C(F)F)c(F)c2)C(=O)N2C[C@H](OCC)C[C@H]2C(=O)NC2(CC(C)(C)C2)C(=O)N(C)[C@@H](C2CCCC2)C(=O)N(C)[C@H](C(=O)N(C)C)CC(=O)N1C [PP2782],0.49,A (a compound having 10 or more and less than 20 is denoted as A),A (a compound having 10 or more and less than 20 is denoted as A)
CCC[C@H]1C(=O)N[C@@H]([C@@H](C)CC)C(=O)N(C)CC(=O)N(C)[C@H]2C/C=C\CCN(C2=O)[C@@H](Cc2ccc(C(F)(F)F)cc2)C(=O)N(C)CC(=O)N[C@@H](CCc2ccc(Cl)c(C(F)(F)F)c2)C(=O)N2C[C@H](OCC)C[C@H]2C(=O)NC2(CC(C)(C)C2)C(=O)N(C)[C@@H](C2CCCC2)C(=O)N(C)[C@H](C(=O)N(C)C)CC(=O)N1C [PP2784],0.13,A (a compound having 10 or more and less than 20 is denoted as A),A (a compound having 10 or more and less than 20 is denoted as A)
CCC[C@H]1C(=O)N[C@@H]([C@@H](C)CC)C(=O)N(C)CC(=O)N(C)[C@H]2C/C=C\CCN(C2=O)[C@@H](Cc2ccc(C(F)(F)F)cc2)C(=O)N(C)CC(=O)N[C@@H](CCc2ccc(Cl)c(C(F)(F)F)c2)C(=O)N2C[C@H](OCC)C[C@H]2C(=O)NC2(CC(C)(C)C2)C(=O)N(C)[C@@H](C(CC)CC)C(=O)N(C)[C@H](C(=O)N(C)C)CC(=O)N1C [PP2785],0.26,AA (a compound having 20 or more is denoted as AA),A (a compound having 10 or more and less than 20 is denoted as A)
CCC[C@H]1C(=O)N[C@@H]([C@@H](C)CC)C(=O)N(C)CC(=O)N(C)[C@H]2C/C=C\CCN(C2=O)[C@@H](Cc2ccc(C)cc2)C(=O)N(C)CC(=O)N[C@@H](CCc2ccc(Cl)c(C(F)(F)F)c2)C(=O)N2C[C@H](OCC)C[C@H]2C(=O)NC2(CC(C)(C)C2)C(=O)N(C)[C@@H](C2CCCC2)C(=O)N(C)[C@H](C(=O)N(C)C)CC(=O)N1C [PP2786],0.14,A (a compound having 10 or more and less than 20 is denoted as A),A (a compound having 10 or more and less than 20 is denoted as A)
CCC[C@H]1C(=O)N[C@@H]([C@@H](C)CC)C(=O)N(C)CC(=O)N(C)[C@H]2C/C=C\CCN(C2=O)[C@@H](Cc2ccc(C)cc2)C(=O)N(C)CC(=O)N[C@@H](CCc2ccc(Cl)c(C(F)(F)F)c2)C(=O)N2C[C@H](OCC)C[C@H]2C(=O)NC2(CC(C)(C)C2)C(=O)N(C)[C@@H](C(CC)CC)C(=O)N(C)[C@H](C(=O)N(C)C)CC(=O)N1C [PP2787],0.36,AA (a compound having 20 or more is denoted as AA),A (a compound having 10 or more and less than 20 is denoted as A)
CCC[C@H]1C(=O)N[C@@H]([C@@H](C)CC)C(=O)N(C)CC(=O)N(C)[C@H]2C/C=C\CCN(C2=O)[C@@H](Cc2ccc(C(F)(F)F)cc2)C(=O)N(C)CC(=O)N[C@@H](CCc2ccc(Cl)c(OC)c2)C(=O)N2C[C@H](OCC)C[C@H]2C(=O)NC2(CC(C)(C)C2)C(=O)N(C)[C@@H](C2CCCC2)C(=O)N(C)[C@H](C(=O)N(C)C)CC(=O)N1C [PP2788],0.45,A (a compound having 10 or more and less than 20 is denoted as A),A (a compound having 10 or more and less than 20 is denoted as A)
CCC[C@H]1C(=O)N[C@@H]([C@@H](C)CC)C(=O)N(C)CC(=O)N(C)[C@H]2C/C=C\CCN(C2=O)[C@@H](Cc2ccc(C(F)(F)F)cc2)C(=O)N(C)CC(=O)N[C@@H](CCc2ccc(Cl)c(OC)c2)C(=O)N2C[C@H](OCC)C[C@H]2C(=O)NC2(CC(C)(C)C2)C(=O)N(C)[C@@H](C(CC)CC)C(=O)N(C)[C@H](C(=O)N(C)C)CC(=O)N1C [PP2789],1,AA (a compound having 20 or more is denoted as AA),A (a compound having 10 or more and less than 20 is denoted as A)
CCC[C@H]1C(=O)N[C@@H]([C@@H](C)CC)C(=O)N(C)CC(=O)N(C)[C@H]2C/C=C\CCN(C2=O)[C@@H](Cc2ccc(C)cc2)C(=O)N(C)CC(=O)N[C@@H](CCc2ccc(Cl)c(OC)c2)C(=O)N2C[C@H](OCC)C[C@H]2C(=O)NC2(CC(C)(C)C2)C(=O)N(C)[C@@H](C2CCCC2)C(=O)N(C)[C@H](C(=O)N(C)C)CC(=O)N1C [PP2790],0.54,A (a compound having 10 or more and less than 20 is denoted as A),A (a compound having 10 or more and less than 20 is denoted as A)
CCCC[C@H]1C(=O)N[C@@H]([C@@H](C)CC)C(=O)N(C)CC(=O)N(C)[C@H]2C/C=C\CCN(C2=O)[C@@H](Cc2ccc(C)cc2)C(=O)N(C)CC(=O)N[C@@H](CCc2cc(F)c(C(F)(F)F)c(F)c2)C(=O)N2C[C@H](OCC)C[C@H]2C(=O)NC2(CCC2)C(=O)N(C)[C@@H](C2CCCC2)C(=O)N(C)[C@H](C(=O)N(C)CC)CC(=O)N1C [PP2796],0.12,A (a compound having 10 or more and less than 20 is denoted as A),A (a compound having 10 or more and less than 20 is denoted as A)
